{
  "source": "patent US20160000762A1",
  "about": "“IMPROVING COGNITIVE FUNCTION” (THE REGENTS OF THE UNIVERSITY OF CALIFORNIA, priority 2013, published 2016)",
  "key": {"CA1 pyramidal neurons": {"system": "CA1 pyramidal neurons", "experiment": "Whole cell recordings (mEPSC, AMPA/NMDA) in CA1 pyramidal neurons of injected mice", "type": "in vivo", "conditions": "30 mg/kg i.p., 2 weeks", "protocol": "Electrophysiology. Transverse [for Schaffer collateral (SC) input studies] or horizontal [for temporammonic (TA) input studies] hippocampal slices (400-μm thick) were prepared from adult mice. Slices were made using ice-cold dissection buffer (in mM: 212.7 sucrose, 2.6KCl, 1.23NaH2PO4, 10 dextrose, 3MgCl2 and 1CaCl2; 5% CO2/95% O2), and recordings were done in a submersion-type chamber perfused with artificial cerebrospinal fluid (ACSF, in mM: 124NaCl, 5KCl, 1.25NaH2PO4, 26NaHCO3, 10 dextrose, 1.5MgCl2, and 2.5CaCl2; 5% CO2/95% O2, 29.5-30.5° C., 2 ml/min). For field potential recordings, synaptic responses were evoked using 0.2 ms duration pulses delivered through a bipolar glass stimulating electrode at 0.0333 Hz. A train of TBS consisted of a burst of 4 pulses at 100 Hz repeated 10 times at 5 Hz. For 4× TBS, 4 trains of TBS were given at 10 sec inter-train-intervals. […] Recording was initiated 2-3 min after break-in, and each cell was recorded for 10-15 min to collect enough mEPSCs for analysis. […] Cells were held at −70 mV, and the recorded mEPSC data were digitized at 10 kHz with a data acquisition board (National Instruments, Austin, Tex.) and acquired through custom-made programs using the Igor Pro software (WaveMetrics, Lake Oswego, Oreg.). […] Only about 4% of the total recorded cells (at most 1 cell per experimental group) were excluded due to negative correlation between mEPSC rise and amplitude. One hundred consecutive mEPSCs that met the rise time criteria were analyzed from each cell. AMPAR- and NMDAR-mediated currents were measured at −70 and +40 mV, respectively. AMPAR mediated EPSC amplitudes were measured at the peak of the current at −70 mV. NMDAR mediated EPSC amplitudes were measured 100 ms after the stimulation artifact. […]\nTo verify that the increase in dendritic spine density and synaptic proteins reflects an increase in functional synapses, we measured miniature excitatory postsynaptic currents (mEPSCs) from CA1 neurons in hippocampal slices following in vivo administration of BTA-EG4 (30 mg/kg, i.p.) for 2 weeks."}, "[1]": {"system": "primary hippocampal neurons", "experiment": "Synaptic marker immunostaining, primary hippocampal neurons", "type": "cell-based, Sprague-Dawley rats", "conditions": "5 μM, 24 h", "protocol": "Primary neuron culture and immunostaining. Primary hippocampal neurons from E19 Sprague-Dawley rats were cultured at 150 cells/mm^2 as previously described (Pak et al., 2001). Neurons were transfected using Lipofectamine™ 2000 (Invitrogen, Carlsbad, Calif., USA) or calcium phosphate precipitation with GFP+PLL, GFP+APP shRNA, or GFP+APP and treated with BTA-EG4. The following antibodies were used: mouse anti-GFP (Novus Biologicals, 9F9.F9), rabbit anti-GFP (Invitrogen, A11122), rabbit anti-GluR1 (Calbiochem, PC246), mouse anti-GluR2 (BD Pharmagen, 556341), mouse anti-postsynaptic density (PSD)-95 (NeuroMabs, Davis, Calif., USA), mouse anti-Synaptophysin (Sigma Aldrich, s5768), rabbit APP N-terminal (Sigma-Aldrich, A8967), anti-Ras (BD Biosciences, 610001), anti-RasGRF1 (Santa Cruz, C-20; BD Biosciences, 610149), anti-ERK1/2 (Cell Signaling, 4695), anti-p-ERK1/2 (Invitrogen, 36880), anti-CREB (Cell Signaling, D76D11), anti-p-CREB (Millipore, 06-519), and mouse anti-c-Myc (Novus Biologicals, 9E10). Cultured hippocampal neuron images were acquired by LSM 510 laser scanning confocal microscope (Zeiss). Confocal zseries image stacks encompassing entire dendrite segments were analyzed using MetaMorph software (Universal Imaging Corporation, Downington, Pa., USA). […]"}},
  "data": [
    {"substance": "BTA-EG4", "values": [
      {"measurement": "AMPAR/NMDAR ratio", "setting": "CA1 pyramidal neurons", "value": "did not observe a change"},
      {"measurement": "average mEPSC amplitude", "setting": "CA1 pyramidal neurons", "value": "no significant difference"},
      {"measurement": "frequency of mEPSCs", "setting": "CA1 pyramidal neurons", "value": "significantly increased"},
      {"measurement": "number of puncta stained for PSD-95", "setting": "[1]", "value": "increased"},
      {"measurement": "number of puncta stained for synaptophysin", "setting": "[1]", "value": "increased"}
    ]}
  ]
}
